Earlier results in patent publication US20220143046A1, “COMPOSITION AND METHODS FOR RECTAL DELIVERY OF 4-AAPA AND 5-ASA COMPOUNDS” (9 METERS BIOPHARMA, INC., priority 2019, published 2022).

Conditions: oral formulation; two Phase 1 clinical trials for mild to moderate ulcerative colitis

O=C(O)Cc1ccc(/N=N/c2ccc(O)c(C(=O)O)c2)cc1 [INN-108, 5-(4-carboxymethyl-phenylazo)-2-hydroxybenzoic acid]
systemic absorption: no evidence of systemic absorption
